Laboratory results from US10111900B2, “β-glucan methods and compositions that affect the tumor microenvironment” (Biothera, Inc., priority 2014, dated 2018).

How the values were obtained:
[1] = tested on: M2 macrophages; assay: Flow cytometry of M1/M2 markers on M2 macrophages derived from β-glucan-treated whole blood; type: cell-based, human; details: for expression of CD163: M2 macrophages, vs vehicle
Method: CD14^+ monocytes from human whole blood were enriched using Ficoll gradient and magnetic bead separation. Enriched monocytes (5×10^5 cells per mL) were then cultured in either M1-polarizing (XVivo 10 media (Lonza Group) supplemented with 5% autologous serum and 100 ng/mL recombinant human granulocyte macrophage colony-stimulating factor (rhGM-CSF) (R&D Systems) or M2-polarizing (XVivo 10 media supplemented with 10% autologous serum and 50 ng/mL recombinant human macrophage colony-stimulating factor (rhM-CSF) (R&D Systems) conditions for 6 days. In experiments performed to evaluate the effect of β-glucan, whole blood was first incubated with vehicle (sodium citrate buffer) or 25 μg/mL soluble β-glucan for 2 hours at 37° C. and then the monocytes were isolated and differentiated. Morphology was checked before macrophages were harvested for phenotypic analysis. Culture medium of the day 6 macrophage culture (MCM) was collected, spun down to remove contaminated cell pellet and then frozen down for subsequent cytokine analysis by ELISA or used to setup a co-culture with CD3 & CD28-stimulated CD4 T cells (MCM-CD4 T) for evaluation of either surface markers or CD4 T cell proliferation. The macrophages were used to setup a co-culture with CD3 & CD28- or CD3 only-stimulated CD4 T cells (Mac-CD4 T) on day 6 for evaluation of either surface marker modulation or effect on CD4 T cell proliferation. For Mac-CD4 T cell proliferation study, M1 or M2 macrophages were cultured with CD3 & CD28- or CD3 only-stimulated, CFSE-labeled, autologous CD4 T cells at a 1:10 ratio. T cell proliferation was measured at the end of the experiment (day 9-day 11) by flow cytometry, and results are graphically shown as CFSE-dilution peaks. The assessment of CD3-only stimulated T cells was always done on day 11. Quantitative results were reported as the Division Index (the average number of cell divisions a population underwent) calculated for each of the triplicate wells in each of the culture conditions. Culture supernatants of Mac-CD4 T cell co-cultures were collected for subsequent cytokine analysis.
M1 and M2 macrophages from vehicle- or […] whole blood were prepared as described above. […] In addition, surface expression of CD86 was enhanced as well as both protein and mRNA levels of PD-L1 (FIG. 2B).
(§1) Expression of a panel of markers was evaluated by flow cytometry for vehicle- and β-glucan-treated, high binder-derived M1 and M2 macrophages (CD163 was evaluated twice).
(§2) CD163 and CD86 were evaluated by flow cytometry for vehicle- and β-glucan-treated, low binder-derived M1 and M2 macrophages.

[2] = tested on: H1299 NSCLC tumors; assay: H1299 NSCLC tumors in mice, effect on TME; type: in vivo
Method: Mice bearing H1299 NSCLC tumors were administered bevacizumab (an anti-angiogenic antibody) (5 mg/kg twice weekly IP for four weeks) alone or in combination with IMPRIME PGG (1.2 mg/mouse twice weekly IV for four weeks) as described above for the other mouse studies. […] Increased iNOS and decreased Arginase 1 are markers indicating an M1, immunostimulatory environment.
In addition, at day 20, post tumor injection, spleens were harvested and single cell suspensions were stained with mouse antibodies and analyzed by FACS. GMFI or frequency was calculated in Flowjo after gating on CD11b+F4/80+CD68+ cells (FIG. 17D-FIG. 17F). FIG. 17D and FIG. 17E show an increase in iNOS and a decrease of Arginase-1, respectively. Spleen cells were also stimulated overnight with 100 ng/ml lipopolysaccharide (LPS) and analyzed for TNF-α production. […] As shown, Arginase-1 decreased and iNOS and CD86 increased, which indicates differentiation of splenic MDSC to M1/N1 macrophage/neutrophils with IMPRIME PGG treatment.
For FIG. 17K-FIG. 17M, tumors were harvested at day 20 and digested with type I collagenase for 1 hour at 37° C. Single cell suspensions were stained with mouse antibodies and analyzed by FACS. GMFI or frequency was calculated in Flowjo after gating on CD11b+ cells. As shown, PD-L1 and iNOS increased while Arginase-1 decreased indicating the shift in tumor-infiltrating myeloid cells to a M1-type phenotype.
Lastly, single cell suspensions of the tumor cells were cultured overnight and supernatants were measured for TGF-β by ELISA.

[3] = tested on: CD4 and CD8 T cells; assay: T cell proliferation and activation of PBMCs in plasma from β-glucan-treated whole blood; type: cell-based, human
Method: To obtain plasma, whole blood was treated for 6 hours with 25 μg/mL β-glucan or vehicle, spun down and the plasma removed. 50,000 autologous CFSE-labeled PBMCs were cultured in the treated plasma for 3 days in the presence of 50,000 T cell activating CD3/28 beads (DYNABEADS Human T-Activator CD3/CD28 for T Cell Expansion and Activation). At the end of the culture, PBMCs were stained with CD4 and CD8 and T cell proliferation was measured by CFSE dilution.
Next, to show the effect of soluble β-glucan on CD4 and CD8 cell activation, the T cell proliferation assay described above was again carried out. At day 3, however, the cells were stained for markers of activation including Granzyme B production and CD25 upregulation.

[4] = tested on: M1 macrophages; assay: Flow cytometry of M1/M2 markers on M1 macrophages derived from β-glucan-treated whole blood; type: cell-based, human
Method: CD14^+ monocytes from human whole blood were enriched using Ficoll gradient and magnetic bead separation. […] T cell proliferation was measured at the end of the experiment (day 9-day 11) by flow cytometry, and results are graphically shown as CFSE-dilution peaks. […] Quantitative results were reported as the Division Index (the average number of cell divisions a population underwent) calculated for each of the triplicate wells in each of the culture conditions. […]
as §1, §2

[5] = tested on: M2 macrophages cultured in TCM; assay: Flow cytometry of markers on M2 macrophages cultured in tumor-conditioned medium (TCM); type: cell-based, human
Method: Phenotypic and functional evaluation of β-glucan-treated M2a and β-glucan-treated M2 macrophages in the presence of immunosuppressive cytokines was carried out. M2 or M2a macrophages were prepared as described above. On day 3, tumor-conditioned medium (TCM) was added M2 macrophage cultures to account for 70% of the volume of the culture and then evaluated for CD163 expression and functional activity on day 6. […] M2a macrophages were cultured in IL-4 as described above.
The β-glucan-treated M2a macrophages cultured in IL-4 and M2 macrophages cultured in TCM were first evaluated for CD163 and CD86 expression. CD163 and CD86 were evaluated by flow cytometry and median MFI was calculated for isotype control staining and surface antigen staining and the results are shown in Table 5.
Monocytes or M2 macrophages were prepared as described above. On day 3, TCM was added to account for 70% of the volume of the culture and then evaluated for PD-L1 expression with TCM and then again when co-cultured with CD4 T cells.

[6] = β-glucan-treated M2 macrophages vs vehicle
[7] = spleen, day 20, CD11b+F4/80+CD68+ cells

β(1,6)-[poly-(1,3)-D-glucopyranosyl]-poly-β(1,3)-D-glucopyranose [β-glucan]
expression of CD163 ([1]; high binders): lower expression
expression of CD163 ([1]; low binders): remained the same
mean fluorescence intensity (MFI) of CD163 [1, 6]: downmodulated
protein and mRNA levels of PD-L1 [1, 6]: enhanced
surface expression of CD86 [1, 6]: enhanced
TNF-α production ([2]; spleen cells stimulated overnight with 100 ng/ml LPS): increase
Arginase-1 ([2]; spleen, CD11b+Gr1+ cells): decreased
CD86 ([2]; spleen, CD11b+Gr1+ cells): increased
iNOS ([2]; spleen, CD11b+Gr1+ cells): increased
Arginase-1 [2, 7]: decrease
iNOS [2, 7]: increase
expression of co-stimulatory marker CD86 ([2]; tumor granulocytic MDSC (CD11b+Lyg6+)): enhanced expression
CD4 and CD8 proliferation ([3]; plasma from whole blood treated 6 hours with 25 μg/mL β-glucan, vs vehicle, CD3/28 beads, 3 days): significant enhancement
CD4 and CD8 cell activation (Granzyme B production, CD25 upregulation) ([3]; β-glucan-treated plasma, day 3): enhances
CD163 (2) median MFI ([4]; M1 macrophages, high binder): 230
M1 macrophage phenotype (M1/M2-specific markers) ([4]; β-glucan pretreatment vs vehicle): did not affect
surface expression of PD-L1 ([5]; M2 macrophages cultured in the TCM): higher surface expression
HLA-DR expression ([5]; M2 macrophages in TCM (data not shown)): higher HLA-DR expression
expression of PD-L1 ([5]; M2 macrophages in TCM co-cultured with CD4 T cells): increased expression
CD163 expression ([5]; β-glucan-treated monocytes cultured in TCM): marked down-regulation
